Reference: patent US20240368135A1 (VERTEX PHARMACEUTICALS INCORPORATED, priority 2021, published 2024)

Target: human NaV 1.8 (Homo sapiens, UniProt Q9Y5Y9)
Assay: E-VIPR assay detecting and measuring NaV inhibition properties
Type: cell-based
Settings: HEK cells expressing truncated human NaV 1.8; no human serum; read-out: IC50 in the E-VIPR Assay
In short: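 HEK cells expressing truncated, fully active human NaV1.8, with KIR2.1 BacMam co-transduction, were loaded with CC2-DMPE/DiSBAC6(3) voltage-sensing dyes for 20 min at room temperature. Compounds were tested in 11-point 3-fold dilutions (300 nM top final), optionally with 25% human serum, under electrical stimulation with FRET read-out.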

Chain of human NaV 1.8 (Q9Y5Y9 126-399 limits assumed): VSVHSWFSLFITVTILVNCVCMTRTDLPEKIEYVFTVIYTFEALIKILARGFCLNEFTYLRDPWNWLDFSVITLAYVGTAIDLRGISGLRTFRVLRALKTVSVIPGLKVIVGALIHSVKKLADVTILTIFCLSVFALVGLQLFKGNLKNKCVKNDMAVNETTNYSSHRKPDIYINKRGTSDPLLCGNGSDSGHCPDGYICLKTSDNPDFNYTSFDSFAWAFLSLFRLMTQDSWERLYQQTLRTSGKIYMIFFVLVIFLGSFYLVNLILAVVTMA
Chain of human NaV 1.8 (Q9Y5Y9 660-890 limits assumed): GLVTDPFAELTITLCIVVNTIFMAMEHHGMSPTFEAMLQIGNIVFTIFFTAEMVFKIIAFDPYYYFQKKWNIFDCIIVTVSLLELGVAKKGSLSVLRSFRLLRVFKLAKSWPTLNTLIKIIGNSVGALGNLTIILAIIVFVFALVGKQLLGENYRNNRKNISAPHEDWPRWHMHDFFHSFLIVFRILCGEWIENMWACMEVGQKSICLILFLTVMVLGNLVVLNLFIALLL
Chain of human NaV 1.8 (Q9Y5Y9 1148-1722 limits assumed): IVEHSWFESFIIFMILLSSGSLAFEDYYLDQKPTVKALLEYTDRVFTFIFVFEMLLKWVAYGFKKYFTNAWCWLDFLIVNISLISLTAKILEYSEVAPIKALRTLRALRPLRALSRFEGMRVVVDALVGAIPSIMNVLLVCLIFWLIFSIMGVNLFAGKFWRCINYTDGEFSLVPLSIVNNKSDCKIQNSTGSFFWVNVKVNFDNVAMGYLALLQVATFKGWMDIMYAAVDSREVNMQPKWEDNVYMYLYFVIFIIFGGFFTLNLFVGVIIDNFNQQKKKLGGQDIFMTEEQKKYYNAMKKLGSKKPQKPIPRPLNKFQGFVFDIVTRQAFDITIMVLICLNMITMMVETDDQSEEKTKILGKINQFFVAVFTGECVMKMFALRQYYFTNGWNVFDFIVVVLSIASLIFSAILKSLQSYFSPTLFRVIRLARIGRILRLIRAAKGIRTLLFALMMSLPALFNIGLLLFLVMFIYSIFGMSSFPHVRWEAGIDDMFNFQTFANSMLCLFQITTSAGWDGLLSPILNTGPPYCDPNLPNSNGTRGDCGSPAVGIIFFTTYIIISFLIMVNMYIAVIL

Compound | IC50
COc1c([C@H]2[C@H](C(=O)Nc3cc(CO)n(C)n3)O[C@@](C)(C(F)(F)F)[C@H]2C)ccc(F)c1F [Compound 263, (2R,3S,4S,5R)-3-(3,4-difluoro-2-methoxyphenyl)-N-(5-(hydroxymethyl)-1-methyl-1H-pyrazol-3-yl)-4,5-dimethyl-5-(trifluoromethyl)tetrahydrofuran-2-carboxamide] | 100 to 1000 nM
COc1c([C@H]2[C@H](C(=O)Nc3ccc4nc(CO)cn4c3)O[C@@](C)(C(F)(F)F)[C@H]2C)ccc(F)c1F [Compound 264, (2R,3S,4S,5R)-3-(3,4-difluoro-2-methoxyphenyl)-N-(2-(hydroxymethyl)imidazo[1,2-a]pyridin-6-yl)-4,5-dimethyl-5-(trifluoromethyl)tetrahydrofuran-2-carboxamide] | 10 to 100 nM
COc1c([C@H]2[C@H](C(=O)NCCc3ncc[nH]3)O[C@@](C)(C(F)(F)F)[C@H]2C)ccc(F)c1F [Compound 272, (2R,3S,4S,5R)-3-(3,4-difluoro-2-methoxy-phenyl)-N-[2-(1H-imidazol-2-yl)ethyl]-4,5-dimethyl-5-(trifluoromethyl)tetrahydrofuran-2-carboxamide] | ≥ 1000 nM
COc1c([C@H]2[C@H](C(=O)NC(C)c3ccn[nH]3)O[C@@](C)(C(F)(F)F)[C@H]2C)ccc(F)c1F (stereo partly drawn) [Compound 275, (2R,3S,4S,5R)-N-(1-(1H-pyrazol-5-yl)ethyl)-3-(3,4-difluoro-2-methoxyphenyl)-4,5-dimethyl-5-(trifluoromethyl)tetrahydrofuran-2-carboxamide] | ≥ 1000 nM
COCC1(CNC(=O)[C@@H]2O[C@@](C)(C(F)(F)F)[C@@H](C)[C@H]2c2ccc(F)c(F)c2OC)CCC1 [Compound 276, (2R,3S,4S,5R)-3-(3,4-difluoro-2-methoxyphenyl)-N-((1-(methoxymethyl)cyclobutyl)methyl)-4,5-dimethyl-5-(trifluoromethyl)tetrahydrofuran-2-carboxamide] | ≥ 1000 nM
COc1c([C@H]2[C@H](C(=O)NCC#N)O[C@@](C)(C(F)(F)F)[C@H]2C)ccc(F)c1F [Compound 277, (2R,3S,4S,5R)-N-(cyanomethyl)-3-(3,4-difluoro-2-methoxyphenyl)-4,5-dimethyl-5-(trifluoromethyl)tetrahydrofuran-2-carboxamide] | ≥ 1000 nM
COc1c([C@H]2[C@H](C(=O)NCC3CCOC3)O[C@@](C)(C(F)(F)F)[C@H]2C)ccc(F)c1F (stereo partly drawn) [Compound 279, (2R,3S,4S,5R)-3-(3,4-difluoro-2-methoxyphenyl)-4,5-dimethyl-N-((tetrahydrofuran-3-yl)methyl)-5-(trifluoromethyl)tetrahydrofuran-2-carboxamide] | ≥ 1000 nM
COc1c([C@H]2[C@H](C(=O)NCC3CNC(=O)C3)O[C@@](C)(C(F)(F)F)[C@H]2C)ccc(F)c1F (stereo partly drawn) [Compound 281, (2R,3S,4S,5R)-3-(3,4-difluoro-2-methoxyphenyl)-4,5-dimethyl-N-((5-oxopyrrolidin-3-yl)methyl)-5-(trifluoromethyl)tetrahydrofuran-2-carboxamide] | 100 to 1000 nM
COc1c([C@H]2[C@H](C(=O)NCC(C)(C)C(N)=O)O[C@@](C)(C(F)(F)F)[C@H]2C)ccc(F)c1F [Compound 282, (2R,3S,4S,5R)-N-(3-amino-2,2-dimethyl-3-oxopropyl)-3-(3,4-difluoro-2-methoxyphenyl)-4,5-dimethyl-5-(trifluoromethyl)tetrahydrofuran-2-carboxamide] | ≥ 1000 nM
COc1c([C@H]2[C@H](C(=O)NCCc3cnn(C)c3)O[C@@](C)(C(F)(F)F)[C@H]2C)ccc(F)c1F [Compound 283, (2R,3S,4S,5R)-3-(3,4-difluoro-2-methoxyphenyl)-4,5-dimethyl-N-(2-(1-methyl-1H-pyrazol-4-yl)ethyl)-5-(trifluoromethyl)tetrahydrofuran-2-carboxamide] | ≥ 1000 nM
COc1c([C@H]2[C@H](C(=O)NCC3COC(C)(C)C3)O[C@@](C)(C(F)(F)F)[C@H]2C)ccc(F)c1F (stereo partly drawn) [Compound 284, (2R,3S,4S,5R)-3-(3,4-difluoro-2-methoxyphenyl)-N-((5,5-dimethyltetrahydrofuran-3-yl)methyl)-4,5-dimethyl-5-(trifluoromethyl)tetrahydrofuran-2-carboxamide] | ≥ 1000 nM
COc1c([C@H]2[C@H](C(=O)NCCc3c(C)n[nH]c3C)O[C@@](C)(C(F)(F)F)[C@H]2C)ccc(F)c1F [Compound 285, (2R,3S,4S,5R)-3-(3,4-difluoro-2-methoxyphenyl)-N-(2-(3,5-dimethyl-1H-pyrazol-4-yl)ethyl)-4,5-dimethyl-5-(trifluoromethyl)tetrahydrofuran-2-carboxamide] | ≥ 1000 nM

Continued, values first:

IC50 | Compound
≥ 1000 nM | COc1c([C@H]2[C@H](C(=O)NC3CCOCC3)O[C@@](C)(C(F)(F)F)[C@H]2C)ccc(F)c1F [Compound 269, (2R,3S,4S,5R)-3-(3,4-difluoro-2-methoxyphenyl)-4,5-dimethyl-N-(tetrahydro-2H-pyran-4-yl)-5-(trifluoromethyl)tetrahydrofuran-2-carboxamide]
100 to 1000 nM | COc1c([C@H]2[C@H](C(=O)NCC3CC3)O[C@@](C)(C(F)(F)F)[C@H]2C)ccc(F)c1F [Compound 270, (2R,3S,4S,5R)-N-(cyclopropylmethyl)-3-(3,4-difluoro-2-methoxyphenyl)-4,5-dimethyl-5-(trifluoromethyl)tetrahydrofuran-2-carboxamide]
≥ 1000 nM | COc1c([C@H]2[C@H](C(=O)NC(C)C(N)=O)O[C@@](C)(C(F)(F)F)[C@H]2C)ccc(F)c1F (stereo partly drawn) [Compound 271, (2R,3S,4S,5R)-N-(1-amino-1-oxopropan-2-yl)-3-(3,4-difluoro-2-methoxyphenyl)-4,5-dimethyl-5-(trifluoromethyl)tetrahydrofuran-2-carboxamide]
≥ 1000 nM | COc1c([C@H]2[C@H](C(=O)NC3CCN(C(C)=O)CC3)O[C@@](C)(C(F)(F)F)[C@H]2C)ccc(F)c1F [Compound 273, (2R,3S,4S,5R)-N-(1-acetylpiperidin-4-yl)-3-(3,4-difluoro-2-methoxyphenyl)-4,5-dimethyl-5-(trifluoromethyl)tetrahydrofuran-2-carboxamide]
≥ 1000 nM | COc1c([C@H]2[C@H](C(=O)NC3CCCN(C(C)=O)C3)O[C@@](C)(C(F)(F)F)[C@H]2C)ccc(F)c1F (stereo partly drawn) [Compound 274, (2R,3S,4S,5R)-N-(1-acetylpiperidin-3-yl)-3-(3,4-difluoro-2-methoxyphenyl)-4,5-dimethyl-5-(trifluoromethyl)tetrahydrofuran-2-carboxamide]
≥ 1000 nM | COc1c([C@H]2[C@H](C(=O)NC3CN(C)C3)O[C@@](C)(C(F)(F)F)[C@H]2C)ccc(F)c1F [Compound 278, (2R,3S,4S,5R)-3-(3,4-difluoro-2-methoxyphenyl)-4,5-dimethyl-N-(1-methylazetidin-3-yl)-5-(trifluoromethyl)tetrahydrofuran-2-carboxamide]
100 to 1000 nM | COc1c([C@H]2[C@H](C(=O)NC3CC(F)(F)C3)O[C@@](C)(C(F)(F)F)[C@H]2C)ccc(F)c1F [Compound 280, (2R,3S,4S,5R)-3-(3,4-difluoro-2-methoxyphenyl)-N-(3,3-difluorocyclobutyl)-4,5-dimethyl-5-(trifluoromethyl)tetrahydrofuran-2-carboxamide]
